This assay deals with primary human pancreatic cells. The assay is described as follows: Attachment and growth of primary pancreatic cells on ECM-coated surfaces (cell counting, MTS metabolic activity assay). The conditions noted are these: 10^5 cells/cm^2, grown 8 days; FIG. 4A. Format: cell-based. How it is done:
The attachment of primary human pancreatic cells was evaluated by counting the number of attached cells vs. the number of cells initially seeded on a panel of ECM surfaces comprised of Collagen I (1 μg/cm^2), Fibronectin (3 μg/cm^2), Laminin (2 μg/cm^2), Vitronectin (1 μg/cm^2), Matrigel (1 μg/cm^2), Human ECM (1 μg/cm^2), or Poly-D -Lysine (3 μg/cm^2). In one condition, a mixture of Collagen IV, Laminin, and Fibronectin was utilized. […] Excess ECM solution was then removed and surfaces were rinsed twice in water. Just before seeding cells, the water was aspirated, then cells were seeded onto the ECM surface at a density of 1×10^5 cells/cm^2 in growth medium (PCM) composed of DMEM:HamsF12 mixture (1:1) with 4 mM glutamine, 1×ITS supplement (GIBCO 51500-056), 10% Fetal Calf Serum (Inactivated, Qualified, GIBC 26140-079), and 10 ng/ml Epidermal Growth Factor (EGF) (BD 4001). Cells were seeded onto tissue-culture polystyrene surface as a control. […] The metabolic activity of cells subjected to the various conditions was determined by an MTS assay. Viable cells were measured using the MTS assay (Promega CellTiter 96 Aqueous One Solution Cell Proliferation Assay), a colorimetric method for determining the number of viable cells in proliferation or cytotoxicity. […]
Background: Tetrazolium assays rely on reduction of a dye to a coloured formazan, in cell work by metabolically active cells.

This is an account of results in US20060122104A1, “Methods for in vitro expansion and transdifferentiation of human pancreatic acinar cells into insulin-producing cells” (priority 2002, published 2006).

Turning to Fibronectin, the “cell attachment and expansion on coated surface” value is “suitable surface for cell attachment and expansion”. In the case of Laminin it was “suitable surface for cell attachment and expansion”.
